According to patent publication US20110152313A1 (MACQUARIE UNIVERSITY, priority 2008, published 2011):

How the values were obtained:
Test in all cases: kinase binding constant, 11-point dose response (T7 phage, qPCR)
Settings in all cases: >30 = no inhibition at highest concentration tested
CAMK2G = CAMK2G (Homo sapiens, UniProt Q13555)
YSK4 = target: T1, YSK4 (Homo sapiens, UniProt Q56UN5)
T1 sequence (Q56UN5 1-1328): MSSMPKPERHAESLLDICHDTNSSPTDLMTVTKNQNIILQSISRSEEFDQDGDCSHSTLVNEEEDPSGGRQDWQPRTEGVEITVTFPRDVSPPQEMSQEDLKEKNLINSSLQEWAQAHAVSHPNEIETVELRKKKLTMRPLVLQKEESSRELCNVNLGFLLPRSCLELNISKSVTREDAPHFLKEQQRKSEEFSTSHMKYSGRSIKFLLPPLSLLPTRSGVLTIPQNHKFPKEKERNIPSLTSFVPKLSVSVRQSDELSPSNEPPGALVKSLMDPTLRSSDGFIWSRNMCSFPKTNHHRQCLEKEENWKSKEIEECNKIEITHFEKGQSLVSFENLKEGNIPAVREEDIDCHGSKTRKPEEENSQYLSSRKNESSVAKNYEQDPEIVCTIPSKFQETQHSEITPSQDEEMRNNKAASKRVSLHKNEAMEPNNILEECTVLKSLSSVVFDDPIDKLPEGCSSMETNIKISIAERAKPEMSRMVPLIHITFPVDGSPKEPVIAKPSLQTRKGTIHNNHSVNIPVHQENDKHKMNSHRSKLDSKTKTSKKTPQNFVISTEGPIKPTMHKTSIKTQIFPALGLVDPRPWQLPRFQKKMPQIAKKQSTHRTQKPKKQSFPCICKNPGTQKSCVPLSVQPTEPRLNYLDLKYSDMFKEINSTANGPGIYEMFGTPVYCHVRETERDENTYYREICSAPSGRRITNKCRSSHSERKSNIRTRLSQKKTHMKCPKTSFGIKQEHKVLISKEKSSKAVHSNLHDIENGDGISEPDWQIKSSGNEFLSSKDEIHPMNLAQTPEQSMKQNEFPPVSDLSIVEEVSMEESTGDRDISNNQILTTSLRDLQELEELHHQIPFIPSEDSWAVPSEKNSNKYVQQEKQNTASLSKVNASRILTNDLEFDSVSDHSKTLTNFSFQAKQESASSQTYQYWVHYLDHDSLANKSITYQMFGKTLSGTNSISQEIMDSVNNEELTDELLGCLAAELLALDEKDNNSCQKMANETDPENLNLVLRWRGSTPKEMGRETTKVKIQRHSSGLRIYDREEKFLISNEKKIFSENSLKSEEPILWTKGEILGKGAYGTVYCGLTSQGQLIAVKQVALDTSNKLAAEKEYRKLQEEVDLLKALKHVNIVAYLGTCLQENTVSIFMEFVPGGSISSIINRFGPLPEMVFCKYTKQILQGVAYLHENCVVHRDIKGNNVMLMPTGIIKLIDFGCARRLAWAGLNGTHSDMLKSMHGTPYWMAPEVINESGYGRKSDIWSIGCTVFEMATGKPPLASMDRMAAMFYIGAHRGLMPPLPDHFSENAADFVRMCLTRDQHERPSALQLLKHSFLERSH

DYRK2 = target: T2, DYRK2 (Homo sapiens, UniProt Q92630)
T2 sequence (Q92630 1-601): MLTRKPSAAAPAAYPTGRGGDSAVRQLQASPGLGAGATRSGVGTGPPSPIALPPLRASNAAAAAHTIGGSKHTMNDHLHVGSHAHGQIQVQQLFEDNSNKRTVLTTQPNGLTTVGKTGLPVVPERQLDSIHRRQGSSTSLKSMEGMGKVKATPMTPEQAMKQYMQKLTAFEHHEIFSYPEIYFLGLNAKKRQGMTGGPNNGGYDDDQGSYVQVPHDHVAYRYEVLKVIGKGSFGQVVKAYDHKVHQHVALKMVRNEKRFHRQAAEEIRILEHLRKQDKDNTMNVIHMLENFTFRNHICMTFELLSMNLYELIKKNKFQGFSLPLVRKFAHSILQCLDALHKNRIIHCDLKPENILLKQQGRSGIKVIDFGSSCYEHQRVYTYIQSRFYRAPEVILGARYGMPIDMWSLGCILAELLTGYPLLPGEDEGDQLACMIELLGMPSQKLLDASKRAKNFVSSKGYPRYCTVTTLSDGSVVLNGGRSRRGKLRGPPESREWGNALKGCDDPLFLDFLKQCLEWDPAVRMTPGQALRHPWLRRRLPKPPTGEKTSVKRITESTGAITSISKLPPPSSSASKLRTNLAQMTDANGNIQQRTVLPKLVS

IRAK3 = target: T3, IRAK3 (Homo sapiens, UniProt Q9Y616)
T3 sequence (Q9Y616 1-596): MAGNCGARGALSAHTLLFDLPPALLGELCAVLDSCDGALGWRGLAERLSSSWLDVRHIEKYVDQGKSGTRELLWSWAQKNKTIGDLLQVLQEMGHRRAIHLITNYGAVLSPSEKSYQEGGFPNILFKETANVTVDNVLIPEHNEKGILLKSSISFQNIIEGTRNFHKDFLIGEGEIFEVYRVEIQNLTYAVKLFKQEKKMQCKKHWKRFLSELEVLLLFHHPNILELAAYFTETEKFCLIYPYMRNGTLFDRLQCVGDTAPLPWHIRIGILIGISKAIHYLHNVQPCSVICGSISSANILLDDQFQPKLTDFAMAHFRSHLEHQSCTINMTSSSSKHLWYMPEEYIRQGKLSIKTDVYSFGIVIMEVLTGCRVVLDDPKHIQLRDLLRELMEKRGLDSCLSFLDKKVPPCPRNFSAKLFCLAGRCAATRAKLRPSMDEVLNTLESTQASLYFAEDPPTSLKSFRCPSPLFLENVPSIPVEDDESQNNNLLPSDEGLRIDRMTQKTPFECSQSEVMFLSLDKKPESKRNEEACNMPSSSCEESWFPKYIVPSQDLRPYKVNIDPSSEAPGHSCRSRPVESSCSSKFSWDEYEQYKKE

Sequence of CAMK2G (Q13555 whole entry): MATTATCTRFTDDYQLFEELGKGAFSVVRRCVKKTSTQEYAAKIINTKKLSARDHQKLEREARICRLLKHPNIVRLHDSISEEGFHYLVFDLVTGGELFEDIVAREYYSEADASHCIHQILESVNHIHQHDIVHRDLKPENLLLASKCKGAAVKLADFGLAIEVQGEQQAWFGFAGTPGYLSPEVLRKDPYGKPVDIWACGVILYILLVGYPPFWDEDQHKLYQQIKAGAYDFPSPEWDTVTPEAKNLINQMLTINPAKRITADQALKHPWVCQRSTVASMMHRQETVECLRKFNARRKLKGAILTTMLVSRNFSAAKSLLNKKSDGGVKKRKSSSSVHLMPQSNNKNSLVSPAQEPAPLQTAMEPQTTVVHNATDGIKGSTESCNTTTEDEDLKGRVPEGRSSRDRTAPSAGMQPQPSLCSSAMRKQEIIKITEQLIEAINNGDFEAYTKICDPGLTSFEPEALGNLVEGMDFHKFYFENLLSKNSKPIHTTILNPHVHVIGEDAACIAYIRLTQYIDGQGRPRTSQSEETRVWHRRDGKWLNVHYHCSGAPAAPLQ

Structure (SMILES) | Kd (CAMK2G) | Kd (YSK4) | Kd (DYRK2) | Kd (IRAK3)
Nc1nc2c(-c3ccccn3)nccc2[nH]1 [drawing 35, 4-(pyrid-2-yl)-1H-imidazo[4,5-c]pyridin-2-amine] | > 30000 nM | 220 nM | – | –
Nc1nc2c(-c3cnc4ccccc4c3)nccc2[nH]1 [drawing 36, 4-(quinolin-3-yl)-1H-imidazo[4,5-c]pyridin-2-amine] | – | – | 970 nM | 8900 nM
